{"source": "patent US12552854B2", "about": "“Peptides that block presentation of antigenic islet peptides by HLA-DQ8 and methods for treating type-1 diabetes” (Icahn School of Medicine at Mount Sinai, priority 2019, dated 2026)", "key": {"FIG. 23A [1]": {"assay": "FIG. 23A", "protocol": "(§1) Table printed on a drawing sheet, FIG. 23A\n(§2) Data from a dose of 10 mg/kg and a single discrete subcutaneous dose of 10 mg/kg are shown. FIG. 23B is a graph showing mean RI-CT whole blood concentrations in male CD-1 mice following a single IV bolus dose of 10 mg/kg and a single SC dose of 10 mg/kg. […] This is a long half-life that will make it feasible to use RI-CT in a clinical setting with a once daily dose.\nFirst reader's note: IV arm; the last four rows (n, Mean, SD, CV%) are summary statistics over the animals, and the urine values are one merged cell for Mouse 1-4."}, "FIG. 23A [2]": {"assay": "FIG. 23A", "protocol": "as §1, §2\nFirst reader's note: SC arm; the last four rows (n, Mean, SD, CV%) are summary statistics over the animals, and the meaning of ** is not printed on the sheet.", "remark": "listed apart in the source"}, "[3]": {"tested_on": "lymphocytes isolated from SJL-DQ8 mice immunized with GAD65", "assay": "Ex vivo T-cell activation to GAD65 peptide, lymphocytes of GAD65-immunized SJL-DQ8 mice", "type": "cell-based, mouse", "conditions": "all peptides at 20 μg/ml; 48 hours", "protocol": "The mouse model used in this experiment was SJL-DQ8 mice. When immunized with different type 1 diabetes associated peptides, they developed strong T-cell responses to these peptides. In the ex vivo model, lymphocytes were taken from the spleen of these mice after immunization with an Insulin or GAD65 peptide. They were then stimulated with the peptide used for immunizations and the tested D-peptide was added to see if it blocked T-cell stimulation as measured by IL-2 and interferon γ (IFNγ) production (FIGS. 18 and 19).\nThe cells were treated with medium or GAD65 (with or without D-peptides), all peptides at 20 μg/ml. Supernatants from stimulated lymphocytes were collected 48 hours after stimulation and stored at −80° C. until the Luminex assay was performed. The Milliplex mouse cytokines/chemokines magnetic panel (EMD Millipore Corporation, Billerica, MA) and a Luminex 200 with xPONENT software (Luminex, Austin, Texas) were used to assay the cytokines following the manufacturer's instructions."}, "[4]": {"tested_on": "splenocytes isolated from SJL-DQ8 mice", "assay": "Ex vivo CFSE T-cell proliferation, splenocytes of InsB:9-23-immunized SJL-DQ8 mice", "type": "cell-based, mouse", "conditions": "all peptides at 50 μg/ml; 5 days", "description": "ID NO: 23) and reverse primer [NT]"}, "[5]": {"tested_on": "PBMCs isolated from DQ8 positive T1D patients", "assay": "CFSE T-cell proliferation in PBMCs from DQ8 positive recent-onset T1D patients", "type": "cell-based, human", "conditions": "all peptides at 50 μg/ml", "description": "Subjects with a diagnosis of T1D within the previous 2 years were recruited from the Pediatric Endocrine clinic at Children Hospital at Montefiore and from the adult Endocrine clinics at Montefiore and Mount Sinai Hospitals (New York). Peripheral blood mononuclear cells (PBMCs) were isolated from heparinized blood using Ficoll-Paque (GE Healthcare); freshly isolated PBMCs were used for T-cell activation studies and for genotyping. DNA purified from the blood of the patients was typed for HLA-DQ as previously described (32). PBMCs isolated from DQ8 positive patients were seeded in 96 well plates with 200 μl medium (RPMI, 10% FBS). […] The stimulated PBMCs were assessed for cytokine production and T-cell proliferation as described above for mouse splenocytes. DQ8 typed patients with long standing T1D (>10 years) were used as negative controls in the experiments (no T-cell responses to islet peptides)."}, "[6]": {"assay": "Metabolic stability in mouse hepatocytes", "type": "in vitro ADME", "conditions": "1 μM", "protocol": "Cryopreserved mouse hepatocytes were thawed at 37° C. in water bath until the ice was almost melted (˜90 seconds). The suspensions from the each were immediately transferred to 50 mL centrifuge tubes containing pre-warmed thawing media (VitroGRO HT Medium, Thawing) at 37° C. The cell suspensions were centrifuged at 50 g for 5 minutes at 4° C. (SYS679). Supernatants were discarded and the pellets were re-suspended in pre-warmed 3 mL incubation media (from in vitroGRO HT Medium, Incubation) at 37° C. The percentages of viable cells in the suspension were determined by using the Trypan Blue stain method (20 μL of tryptan blue and 20 μL of cell suspension) DF=2. Cryo mouse hepatocyte (Bioreclamation, lot #CHV) viability was 72.62% (viable/dead=305/115), and the total cells were 4.57 million. 1.57 mL of incubation media was added to cell concentration to get 1 million cells/mL. 10 μl of 100 μM test compounds stock in ACN:H2O (v:v, 1:1) was added to 990 μl of hepatocyte suspension/incubation media in a 24-well plate. 10 μl of 20 μM Midazolam was added to 990 μl of hepatocyte suspension as a positive control in a 24-well plate. The cells were incubated in a 37° C. incubator (SYS431) for 4 hours. 50 μl of aliquots (n=2) were added to 800 ul of MeOH:water (v:v, 5:95) at 0, 15, 30, 60, 120, 180 and 240 minutes. For all samples, 20 μL of internal standard (200 ng/mL tolbutamide) was added to the solution in water. The samples were vortexed vigorously for 5 minutes and then loaded onto a pre-conditioned Oasis HLB 96-well SPE plate (10 mg, […]). The Oasis HLB 96-well SPE plate was conditioned with 1 mL of methanol and then rinsed with 1 mL of water before the samples were loaded. Once loaded onto the Oasis HLB 96-well SPE plate, residual solution was removed by vacuum. The samples were eluted into a clean 96-well plate with 800 μL of 0.1% formic acid in 70% acetonitrile. The samples were evaporated to dryness under nitrogen at ambient temperature using a TurboVap 96 Concentration Workstation (Caliper Life Sciences). […]"}}, "note": "Where “and” joins values, the source holds several entries; their conditions need not be identical. Equal values may be shown once. Entries after “also recorded” stand apart in the source; their conditions may differ. Read-outs that look alike come from different tables or passages of the source.", "data": [{"smiles": "CC(C)C[C@@H](NC(=O)[C@@H](Cc1ccc(O)cc1)NC(=O)[C@@H](CC(C)C)NC(=O)[C@H](NC(=O)[C@@H](CS)NC(=O)CNC(=O)[C@@H](CCC(=O)O)NC(=O)[C@@H](CCCNC(=N)N)NC(=O)CNC(=O)CN)C(C)C)C(=O)N[C@H](C)C(=O)N[C@H](CCC(=O)O)C(=O)N[C@@H](C(=O)NCC(=O)NCC(=O)O)C(C)C", "note": "[RI-CT]", "values": [{"measurement": "AUC0-24", "setting": "FIG. 23A [1]", "result": 5340, "unit": "ng·h/mL"}, {"measurement": "AUClast", "setting": "FIG. 23A [1]", "result": "4350 ng·h/mL and 6260 ng·h/mL and 5520 ng·h/mL"}, {"measurement": "C0", "setting": "FIG. 23A [1]", "result": 15400, "unit": "ng/mL"}, {"measurement": "MRTinf", "setting": "FIG. 23A [1]", "result": 4.72, "unit": "h"}, {"measurement": "Urine | CLrenal", "setting": "FIG. 23A [1]", "result": 2.6, "unit": "mL/min/kg"}, {"measurement": "Urine | Recovery (%)", "setting": "FIG. 23A [1]", "result": 8.70, "unit": "%"}, {"measurement": "AUClast", "setting": "FIG. 23A [2]", "result": 3830, "unit": "ng·h/mL"}, {"measurement": "MRTinf", "setting": "FIG. 23A [2]", "result": 4.50, "unit": "h"}, {"measurement": "blocking T cell activation ex vivo to GAD65 (IL-2, IFNγ production)", "setting": "[3]", "result": "some activity"}, {"measurement": "T-cell proliferation induced by InsB:9-23 (CFSE assay), SJL-DQ8 splenocytes", "setting": "[4]", "result": "significantly suppressed; also recorded: significantly decreased"}, {"measurement": "T-cell proliferation induced by InsB:9-23 (CFSE assay), PBMCs of DQ8 positive T1D patients", "setting": "[5]", "result": "significantly suppressed; also recorded: significantly decreased"}, {"measurement": "consumption of the peptide after incubation with murine hepatocytes", "setting": "[6]; 4 hours", "result": "little/no consumption"}, {"measurement": "metabolic stability (comparison)", "setting": "[6]; mouse hepatocytes", "result": "higher metabolic stability compared to RI-EXT"}]}]}
